What is called ED50 is the midpoint of the dose-response relation. In general, Ki refers to a measure of affinity in units of concentration, obtained from inhibition or displacement.

Molecules are shown by their SMILES. Where two headings read alike, the source gives them in different places.

Assay [1] concerns rhythmic bladder voiding contractions. The assay is described as follows: Volume-induced rhythmic bladder voiding contractions in anaesthetized rats. It is filed as in vivo, rat. Conditions: for ED (10 min disappearance of contractions) / ED50: Rattus norvegicus; for ED (10 min disappearance of contractions): read-out: ED10 min; for ED50: read-out: ED50 (frequency). Here is the method:
Female Sprague Dawley rats weighing 225-275 g (Crl: CDo BR, Charles River Italia) were used. The animals were housed with free access to food and water and were maintained on a forced 12 h alternating light-dark cycle at 22-24° C. for at least one week, except during the experiment. The activity on the rhythmic bladder voiding contractions was evaluated according to the method of Dray (J. Pharmacol. Methods, 13:157, 1985), with some modifications as in Guarneri (Pharmacol. Res., 27:173, 1993). Briefly, rats were anesthetized by subcutaneous injection of 1.25 g/kg (5 ml/kg) urethane, after which the urinary bladder was catheterized via the urethra using PE 50 polyethylene tubing filled with physiological saline. The catheter was tied in place with a ligature around the external urethral orifice and was connected with conventional pressure transducers (Statham P23 ID/P23 XL). […] The bladder was then filled via the recording catheter by incremental volumes of warm (37° C.) saline until reflex bladder voiding contractions occurred (usually 0.8-1.5 ml). For intravenous (i.v.) injection of bioactive compounds, PE 50 polyethylene tubing filled with physiological saline was inserted into the jugular vein. From the cystometrogram, the number of contractions recorded 15 min before (basal values) and after treatment, as well as the mean amplitude of these contractions (mean height of the peaks in mmHg) was evaluated.
Since most compounds produced an effect that was relatively rapid in onset and led to a complete cessation of bladder contractions, bioactivity was conveniently estimated by measuring the duration of bladder quiescence (i.e., the duration of time during which no contractions occurred). The number of animals tested showing a reduction in the number of contractions >30% of that observed in the basal period was also recorded.
Also computed in this manner were extrapolated doses which induced a reduction of the number of contractions of greater than 30% in 50% of treated rats (ED50, frequency) by the method of Bliss (Bliss C. I., Quart. J. Pharm. Pharmacol. 11, 192-216, 1938). After the suppressive effects of drug injection wore off, the height of the contractile peaks was compared with the height of the peaks previously recorded after the control intravenous administration of vehicle. The potency of the tested compounds (ED50 value: the extrapolated doses inducing a 30% reduction of amplitude of the contractions in 50% of treated rats) was evaluated on a quantal basis by the method of Bliss (Bliss C. I., Quart. J. Pharm. Pharmacol. 11, 192-216, 1938).

For assay [2], the system named is urinary bladder. The experiment in a line: Cystometric parameters (cystometrogram) in conscious rats. The class given is in vivo, rat. Conditions: for BVC after treatment / MP after treatment: mean ± S.E.; for change in vivo at 0.3 mg/kg / change in vivo at 1 mg/kg: Rattus norvegicus, iv, 0.25 h, after vs before; for change in vivo at 0.3 mg/kg: i.v. 300 μg/kg; for change in vivo at 1 mg/kg: i.v. 1000 μg/kg. On the procedure: Male Sprague Dawley rats (Crl: CDo BR) weighing 250-350 g were used. The animals were housed with free access to food and water and maintained on a forced 12 h alternating light-dark cycle at 22-24° C. for at least one week, except during performance of the experiment. To quantify urodynamic parameters in conscious rats, cystometrographic studies were performed using procedures previously described (Guarneri et al., Pharmacol. Res., 24:175, 1991). […] An approximately 10 mm long midline incision was made in the shaved and cleaned abdominal wall. The urinary bladder was gently freed from adhering tissues, emptied, and then cannulated, via an incision at the dome, with a polyethylene cannula (Portex PP30), which was permanently sutured with silk thread. The cannula was exteriorized through a subcutaneous tunnel in the retroscapular area, where it was connected with a plastic adapter to avoid the risk of removal by the animal. For intravenous (i.v.) injection of test compounds, a PE 50 polyethylene tubing filled with physiological saline was inserted into the jugular vein and exteriorized in the retroscapular area. The rats were utilized exclusively one day after implantation. On the day of the experiment, the rats were placed in Bollman's cages, after a stabilization period of 20 min, and the free tip of the bladder catheter was connected through a T-shaped tube to a pressure transducer (Bentley T 800/Marb P 82) and to a peristaltic pump (Gilson minipuls 2) for a continuous infusion, at the constant rate of 0.1 ml/min, of saline solution into the urinary bladder. The intraluminal pressure signal during infusion was continuously recorded on a polygraph (Battaglia Rangoni KO 380 with ADCl/T amplifier).
Two urodynamic parameters were evaluated: bladder volume capacity (BVC) and micturition pressure (MP). BVC (in ml) is defined as the minimum volume infused after which detrusor contraction (followed by micturition) occurs. MP (in mm Hg) is defined as the maximal intravesical pressure induced by the contraction of detrusor during micturition. Basal BVC and MP values were calculated as the means of the first two recorded cystometrograms. At this point in the assay, the infusion was interrupted and the test compounds were administered. Fifteen minutes after intravenous administration two additional cystometrograms were recorded in each animal and the mean values of the two cystometrographic parameters were calculated. The statistical significance of the differences in urodynamic parameter values was evaluated by Student's t test for paired data.

Assay [3] deals with T1, human 5-HT1A serotonergic receptor (Homo sapiens, UniProt P08908).
T1 construct: expressed in transfected cells; host or cells: HeLa
T1 sequence (P08908 1-422): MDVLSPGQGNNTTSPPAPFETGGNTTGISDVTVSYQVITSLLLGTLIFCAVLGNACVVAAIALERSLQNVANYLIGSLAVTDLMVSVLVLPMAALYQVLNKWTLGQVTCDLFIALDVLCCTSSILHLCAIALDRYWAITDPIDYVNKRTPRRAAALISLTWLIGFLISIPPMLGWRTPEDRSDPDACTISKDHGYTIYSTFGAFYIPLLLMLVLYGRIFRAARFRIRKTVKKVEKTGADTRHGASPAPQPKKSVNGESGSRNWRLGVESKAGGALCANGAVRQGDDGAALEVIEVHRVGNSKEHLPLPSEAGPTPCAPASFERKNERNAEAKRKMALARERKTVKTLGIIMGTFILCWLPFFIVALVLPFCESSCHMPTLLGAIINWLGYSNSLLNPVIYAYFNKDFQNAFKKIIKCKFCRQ
The experiment in a line: Radioreceptor binding, recombinant human 5-HT1A receptors ([3H]8-OH-DPAT, HeLa membranes). To be noted: recombinant human receptor, [3H]8-OH-DPAT; Ki from IC50 by Cheng & Prusoff; read-out: Binding affinity for the 5-HT1A receptor, Ki. On the procedure:
Genomic clone G-21 coding for the human 5-HT1A serotonergic receptor is stably transfected in a human cell line (HeLa). HeLa cells were grown as monolayers in Dulbecco's modified Eagle's medium (DMEM), supplemented with 10% fetal calf serum and gentamicin ([…]), 5% CO2 at 37° C. Cells were detached from the growth flask at 95% confluence by a cell scraper and were lysed in ice-cold 5 mM Tris and 5 mM EDTA buffer (pH 7.4). Homogenates were centrifuged at 40000×g×20 min and pellets were resuspended in a small volume of ice-cold 5 mM Tris and 5 mM EDTA buffer (pH 7.4) and immediately frozen and stored at −70° C. until use. On the day of experiment, cell membranes were resuspended in binding buffer: 50 mM Tris HCl (pH 7.4), 2.5 mM MgCl2, 10 μM pargiline (Fargin et al., Nature 335, 358-360, 1988). Membranes were incubated in a final volume of 1 ml for 30 min at 30° C. with 0.2-1 nM [3H]8-OH-DPAT, in absence or presence of competing drugs; non-specific binding was determined in the presence of 10 μM 5-HT. The incubation was stopped by addition of ice-cold Tris-HCl buffer and rapid filtration through 0.2% polyethyleneimine pretreated Whatman GF/B or Schleicher & Schuell GF52 filters.
The inhibition of specific binding of the radioligands by the tested drugs was analyzed to estimate the IC50 value by using the non-linear curve-fitting program Allfit (De Lean et al., Am. J. Physiol. 235, E97-E102, 1978). The IC50 value was converted to an affinity constant (Ki) by the equation of Cheng & Prusoff (Cheng, Y. C.; Prusoff, W. H. Biochem. Pharmacol. 22, 3099-3108, 1973).

Where [4] appears, read: extrapolated dose inducing 10 min of disappearance of the contractions, intravenous, anaesthetized rats.
Where [5] appears, read: extrapolated dose inducing a reduction of the number of contractions >30% in 50% of treated rats, intravenous.

For the molecule `COc1ccccc1N1CCN(CCNc2cccc([N+](=O)[O-])c2)CC1` [Compound D, 1-[N-(3-nitrophenyl)-2-aminoethyl]-4-(2-methoxyphenyl)piperazine, reference compound], the ED (10 min disappearance of contractions) in assay [1] (setting [4]) is greater than 1 mg/kg. The ED50 in assay [1] (setting [5]) was greater than 1 mg/kg.

`COc1ccccc1N1CCN(CCNc2ccccc2[N+](=O)[O-])CC1` [Example 1, 1-[N-(2-nitrophenyl)-2-aminoethyl]-4-(2-methoxyphenyl)piperazine]: in assay [1] (setting [4]), the ED (10 min disappearance of contractions) is 0.192 mg/kg. Besides, the ED50 in assay [1] (setting [5]) is 0.055 mg/kg.

As for `COc1ccccc1N1CCN(CCNc2ccccc2)CC1` [Compound AA, 1-(N-phenyl-2-aminoethyl)-4-(2-methoxyphenyl)piperazine, reference compound], the ED (10 min disappearance of contractions) in assay [1] (setting [4]) is 0.663 mg/kg. The ED50 in assay [1] (setting [5]) was 0.244 mg/kg.

`COc1ccccc1N1CCN(CCN(C(=O)C2CCCCC2)c2cccc([N+](=O)[O-])c2)CC1` [Compound B, 1-[N-(3-nitrophenyl)-N-cyclohexylcarbonyl-2-aminoethyl]-4-(2-methoxypheny)piperazine, reference compound]: the ED10 min in assay [1] (setting [4]) was greater than 1 mg/kg. In addition, the “ED50 (frequency)” value in assay [1] (setting [5]) is greater than 1 mg/kg. The “pharmacological activity on bladder voiding contractions (in words)” value in assay [1] (nitro group at position 3 or 4 of the aniline ring) was “pharmacological activity was abolished”.

Regarding `COc1ccccc1N1CCN(CCN(C(=O)C2CCCCC2)c2ccccc2I)CC1` [Example 8], the BVC after treatment in assay [2] (15 min after i.v. 300 μg/kg) was 0.71 ± 0.05 mL; in assay [2] (15 min after i.v. 1000 μg/kg) it was 0.88 ± 0.12 mL. Also, the MP after treatment amounted to 98.3 ± 17.2 mmHg in assay [2] (15 min after i.v. 300 μg/kg) and 64.8 ± 10.5 mmHg in assay [2] (15 min after i.v. 1000 μg/kg). Besides, the figures for the change in vivo at 0.3 mg/kg in assay [2] (read-out: BVC % of change) and in assay [2] (read-out: MP % of change) were 21% and -15%, respectively. Besides, the change in vivo at 1 mg/kg was 35% in assay [2] (read-out: BVC % of change) and -20% in assay [2] (read-out: MP % of change). The Ki in assay [3] worked out at 0.36 nM.

As to `O=C(C1CCCCC1)N(CCN1CCN(c2cccc3[nH]ccc23)CC1)c1ccccc1I` [Example 76, 1-[N-cyclohexylcarbonyl-N-(2-iodophenyl)-2-aminoethyl]-4-(4-indolyl)piperazine], the Ki in assay [3] was found to be 0.69 nM.

With `COc1ccccc1N1CCN(CCN(C(=O)C2CCCCC2)c2ccccc2C(=O)N(C)C)CC1` [Example 21, 1-[N-(2-dimethylaminocarbonylphenyl)-N-cyclohexylcarbonyl-2-aminoethyl]-4-(2-methoxyphenyl)piperazine.], the Ki in assay [3] turned out to be 2.72 nM.

As to `O=C(c1cnccn1)N(CCN1CCN(c2cccc3[nH]ccc23)CC1)c1ccccc1[N+](=O)[O-]` [Example 53], the Ki in assay [3] was found to be 11.7 nM.

As for `COc1ccccc1N1CCN(CCN(C(=O)C2(C)CCCCC2)c2ccccc2[N+](=O)[O-])CC1` [Example 39, 1-[N-(2-nitrophenyl)-N-(1-methylcyclohexylcarbonyl)-2-aminoethyl]-4-(2-methoxyphenyl)piperazine], in assay [3], the Ki was 2.65 nM.

Regarding `N#Cc1ccccc1N(CCN1CCN(c2ccccc2OC(F)(F)F)CC1)C(=O)C1CCCCC1` [Example 77, 1-[N-(2-cyanophenyl)-N-cyclohexylcarbonyl-2-aminoethyl]-4-(2-trifluoromethoxyphenyl)piperazine], the Ki in assay [3] came to 0.58 nM.

As to `COc1ccccc1N1CCN(CCN(C(=O)c2ccoc2)c2ccccc2[N+](=O)[O-])CC1` [Example 32, 1-[N-(2-nitrophenyl)-N-(3-furylcarbonyl)-2-aminoethyl]-4-(2-methoxyphenyl)piperazine], the Ki in assay [3] was 19.4 nM.

For `COc1ccccc1N1CCN(CCN(C(=O)C2CCCCC2)c2ccccc2Oc2ccccc2)CC1` [Example 6, 1-[N-(2-phenoxyphenyl)-N-cyclohexylcarbonyl-2-aminoethyl]-4-(2-methoxyphenyl)piperazine], the Ki in assay [3] was found to be 0.45 nM.

`COc1ccccc1N1CCN(CCN(C(=O)c2cncs2)c2ccccc2[N+](=O)[O-])CC1` [Example 73]: the Ki in assay [3] is 21.2 nM.

On to `COc1ccccc1N1CCN(CCN(C(=O)C2CCCCC2)c2ccccc2C(=O)NC(=O)C2CCCCC2)CC1` [Example 16, 1-[N-(2-cyclohexylcarbonylaminocarbonylphenyl)-N-cyclohexylcarbonyl-2-aminoethyl]-4-(2-methoxyphenyl)piperazine], for which the Ki in assay [3] was 2.9 nM.

Regarding `COC(=O)c1ccccc1NCCN1CCN(c2ccccc2OC)CC1` [Example 17, 1-[N-(2-methoxycarbonylphenyl)-2-aminoethyl]-4-(2-methoxyphenyl)piperazine], the inhibition constant (Ki) in assay [3] was determined as 20.2 nM.

Values taken from patent publication US6399614B1, “1-(N-phenylaminoalkyl)piperazine derivatives substituted at position 2 of the phenyl ring” (Recordati S.A. Chemical and Pharmaceutical Company, priority 1997, dated 2002).
